Test results published in patent US6432962B1, “Benzophenones as inhibitors of IL-1β and TNF-α” (Leo Pharmaceutical Products Ltd. A/S, priority 2000, dated 2002).

Columns and labels:
[1] = system: Human polymorphonuclear (PMN) granulocytes, superoxide anion generation; test: Inhibition of PMN superoxide secretion (ferricytochrome C reduction); type: cell-based; conditions: human PMN primed with TNF-α, fMLP stimulated; read-out: Inhibition of PMN-superoxide production in vitro, median inhibition concentration (IC50)
Method: The compounds of the present invention also show similar activities in the ability to inhibit PMN (polymorphonuclear) superoxide secretion which is also indicative of potentially useful anti-inflammatory drugs. The compounds were tested using the following procedure: Human polymorphonuclear (PMN) granulocytes were isolated from human blood by dextran sedimentation, Lymphoprep® fractionation and hypotonic lysis of contaminating erythrocytes. Superoxide anion generation was measured as the superoxide dismutase inhibitable reduction of ferricytochrome C (Madhu, S. B. et al, Inflammation, 16, 241, (1992)). The cells were suspended in Hanks' balanced salt solution, and incubated for 10 minutes at 37° C. with test compounds. The cells were primed by the addition of TNF-α (3 ng/mL final concentration) for 10 minutes, and then ferricytochrome C, (final concentration 750 μg/mL), bovine serum albumin (BSA, final concentration 1 mg/mL) and formylmethionyl-leucyl-phenylalanine (fMLP, final concentration 10^-7 M) were added for 3 minutes. The cells were chilled on ice, and were spun down. The optical densities in the cell-free supernatant was measured in a spectrophotometer. The median inhibitory concentration (IC50) of the compounds was calculated.

[2] = Log P of the tested compounds; type: physicochemical
[3] = system: IL-1β secretion, LPS stimulated peripheral blood mononuclear cells; test: Inhibition of IL-1β secretion from LPS stimulated peripheral blood mononuclear cells; type: cell-based; conditions: LPS stimulated human PBMC, 18 hours, ELISA; read-out: Inhibition of cytokines in vitro, median inhibition concentration (IC50), IL-1β
Method: (§1) To study the effect of the compound of the present invention in vitro the inhibition of the IL-1β and TNF-α secretion was measured using the following procedure: Cytokine production was measured in the media from lipopolysaccharide (LPS) stimulated peripheral blood mononuclear cells. The mononuclear cells were isolated from human peripheral blood by Lymphoprep® (Nycomed, Norway) fractionation and suspended in RPMI 1640 (growth medium) with foetal calf serum (FCS, 2%), at a concentration of 5×10^5 cells/ml. The cells were incubated in 24-well tissue culture plates in 1 mL aliquots. Test compounds were dissolved in dimethylsulfoxide (DMSO, 10 mM) and were diluted with the medium. Compounds were added to the cells for 30 minutes, then LPS ([…] final concentration) was added. The plates were incubated for 18 hours, and the concentration of IL-1β and TNF-α in the medium was determined by enzyme-linked immunosorbent assays. The median inhibitory concentrations (IC50) of the compounds were calculated.

[4] = system: TNF-α secretion, LPS stimulated peripheral blood mononuclear cells; test: Inhibition of TNF-α secretion from LPS stimulated peripheral blood mononuclear cells; type: cell-based; conditions: LPS stimulated human PBMC, 18 hours, ELISA; read-out: Inhibition of cytokines in vitro, median inhibition concentration (IC50), TNF-α
Method: as §1

p38α MAP kinase = target: T1, p38α MAP kinase (Homo sapiens, UniProt Q16539); test: p38α MAP kinase assay; type: biochemical; conditions: immunoprecipitated FLAG-p38α from COS-1 cells, GST-ATF-2 substrate; read-out: IC50 values for the inhibition of p38α MAP kinase, mean concentration
T1 construct: made in house; host or cells: COS-1 cells (transient co-transfection, anti-FLAG M2 immunoprecipitation)
T1 sequence (Q16539 whole entry): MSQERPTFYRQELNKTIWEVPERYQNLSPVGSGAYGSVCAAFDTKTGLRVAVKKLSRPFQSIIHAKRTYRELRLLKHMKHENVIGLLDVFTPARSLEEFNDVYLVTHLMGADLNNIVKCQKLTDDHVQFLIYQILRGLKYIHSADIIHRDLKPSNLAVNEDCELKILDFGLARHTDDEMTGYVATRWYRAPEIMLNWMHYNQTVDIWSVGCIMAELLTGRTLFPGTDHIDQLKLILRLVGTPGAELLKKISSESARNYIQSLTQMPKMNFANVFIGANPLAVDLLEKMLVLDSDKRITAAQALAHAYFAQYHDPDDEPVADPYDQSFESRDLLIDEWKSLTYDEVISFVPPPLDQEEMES
Method: Transient Expression of COS-1 Cells
On day one COS-1 cells were seeded in 143 cm^2 petridish with a density of 2×10^4 cells/cm^2 in growth medium. At day 2 the cells were co-transfected with 5 μg (total) of experimental plasmid DNA, expressing the FLAG-p38α and FLAG-MKK6(EE). The plasmids were introduced into the COS-1 cells in serum-free medium using DOTAP™ (Boehringer-Mannheim, Mannheim, Germany). Plasmid DNA was prepared and purified using the QIAGEN EndoToxin-free Maxiprep-500 kit (Hilden, Germany). Briefly, DNA and DOTAP™ were mixed for exactly 15 min. at 37° C. in the CO2 incubator. The transfection-mixture was hereafter transferred to a 15-mL falcon-tube and transfection-medium (DMEM with L-Glutamine and Pen./Strep. but without serum) was added to the transfection-mixture, followed by addition to the cell-monolayer. After 4 hours of incubation with DOTAP™ and plasmids, the medium containing double amount of serum was added to the cells bringing the final concentration of serum up to 10%. […]
The reaction was allowed to proceed for 30 min. at 30° C., and it was stopped by adding 40 μl of 2×SDS-sample buffer to the kinase reaction. […] The dried SDS-PAGE gel was exposed to a Phospho-Imager screen and the radioactive PHAS-1 bands were quantified by the STORM860 Phospho-Imager (Molecular Dynamics, Sunnyvale, Calif., USA) using the ImageQuaNT software.

Cc1ccccc1C(=O)c1ccc(Nc2cncc3ccccc23)cc1Cl [Compound 114, 2-Chloro-4-(4-isoquinolylamino)-2′-methylbenzophenone]
IC50 [1]: 15 nM | logP [2]: 4.2 | IC50 [3]: 31 nM | IC50 [4]: 5 nM | IC50 (p38α MAP kinase): 12.8 nM

Cc1ccccc1C(=O)c1ccc(Nc2c[n+]([O-])cc3ccccc23)cc1Cl [Compound 128, 2-Chloro-4((4-isoquinolyl-N-oxide)amino)-2′-methylbenzophenone]
IC50 [1]: 12.6 nM | Log P [2]: 4.4 | IC50 [3]: 15.8 nM | IC50 [4]: 3.1 nM

Cc1ccccc1C(=O)c1ccc(Nc2ccccc2N)cc1Cl [Ref. comp., 4-(2-aminophenylamino)-2-chloro-2′-methylbenzophenone, reference compound]
IC50 [1]: 5 nM | logP [2]: 4.9 | IC50 [3]: 13 nM | IC50 [4]: 7.1 nM
